How the values were obtained:
human EHMT2 913-1193 = molecular target: T1, human EHMT2 913-1193 (Homo sapiens, UniProt Q96KQ7); experiment: EHMT2 enzyme assay on histone peptide substrate (EHMT2 PEP); assay type: biochemical; conditions: Table II; read-out: EHMT2 PEP (IC50 μM)
T1 construct: recombinant purified human EHMT2 913-1193, Viva; purchased Viva
T1 sequence (Q96KQ7 913-1193): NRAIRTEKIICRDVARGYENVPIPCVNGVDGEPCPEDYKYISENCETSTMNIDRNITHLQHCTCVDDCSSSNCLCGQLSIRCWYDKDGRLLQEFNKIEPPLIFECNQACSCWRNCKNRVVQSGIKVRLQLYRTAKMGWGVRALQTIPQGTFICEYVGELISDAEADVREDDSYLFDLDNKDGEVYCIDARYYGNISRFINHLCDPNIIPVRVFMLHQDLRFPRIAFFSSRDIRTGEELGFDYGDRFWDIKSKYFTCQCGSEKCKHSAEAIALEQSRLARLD
In short: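 Inhibition is measured as reduced tritium incorporation into a biotinylated histone peptide from ^3H-SAM. The enzyme (0.031 nM) sees compound for 30 minutes before a 60-minute room-temperature reaction, which unlabeled SAM quenches prior to streptavidin Flashplate capture.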

EHMT1 = molecular target: T2, EHMT1 (Homo sapiens, UniProt Q9H9B1); experiment: EHMT1 enzyme assay on peptide substrate (EHMT1 PEP); assay type: biochemical; conditions: Table II; read-out: EHMT1 PEP (IC50 μM)
T2 sequence (Q9H9B1 1-1298): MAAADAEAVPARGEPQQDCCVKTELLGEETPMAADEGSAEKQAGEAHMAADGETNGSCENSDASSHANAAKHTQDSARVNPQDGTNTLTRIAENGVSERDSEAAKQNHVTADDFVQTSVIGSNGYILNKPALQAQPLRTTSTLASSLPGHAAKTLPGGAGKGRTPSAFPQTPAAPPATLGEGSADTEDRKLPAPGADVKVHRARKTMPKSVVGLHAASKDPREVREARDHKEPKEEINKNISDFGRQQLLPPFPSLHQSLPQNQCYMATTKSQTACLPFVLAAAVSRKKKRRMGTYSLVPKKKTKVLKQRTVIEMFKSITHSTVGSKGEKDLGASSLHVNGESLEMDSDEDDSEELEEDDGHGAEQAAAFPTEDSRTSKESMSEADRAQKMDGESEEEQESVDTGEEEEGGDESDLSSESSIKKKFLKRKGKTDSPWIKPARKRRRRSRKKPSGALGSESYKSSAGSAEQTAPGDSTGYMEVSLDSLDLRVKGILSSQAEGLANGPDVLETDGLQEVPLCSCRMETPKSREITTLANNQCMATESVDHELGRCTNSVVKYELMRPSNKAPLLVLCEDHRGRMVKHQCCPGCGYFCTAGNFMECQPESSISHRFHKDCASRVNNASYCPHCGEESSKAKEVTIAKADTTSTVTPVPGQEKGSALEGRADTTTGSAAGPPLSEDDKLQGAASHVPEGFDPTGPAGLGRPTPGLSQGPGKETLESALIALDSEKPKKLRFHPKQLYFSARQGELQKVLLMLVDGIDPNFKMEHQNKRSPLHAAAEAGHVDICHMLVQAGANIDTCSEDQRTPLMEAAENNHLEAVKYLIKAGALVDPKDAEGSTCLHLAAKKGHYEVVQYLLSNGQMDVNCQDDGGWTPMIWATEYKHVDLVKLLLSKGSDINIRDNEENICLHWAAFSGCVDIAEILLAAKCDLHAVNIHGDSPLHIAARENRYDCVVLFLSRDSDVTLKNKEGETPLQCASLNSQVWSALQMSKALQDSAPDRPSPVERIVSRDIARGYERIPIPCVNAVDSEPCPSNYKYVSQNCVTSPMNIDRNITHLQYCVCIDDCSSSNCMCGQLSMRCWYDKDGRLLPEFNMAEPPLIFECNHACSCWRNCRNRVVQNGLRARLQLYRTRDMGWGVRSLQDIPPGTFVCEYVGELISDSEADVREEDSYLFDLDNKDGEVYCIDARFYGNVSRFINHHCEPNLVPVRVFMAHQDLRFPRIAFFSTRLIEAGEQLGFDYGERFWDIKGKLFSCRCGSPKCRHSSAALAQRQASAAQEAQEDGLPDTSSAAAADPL

Compound	IC50 (human EHMT2 913-1193) [µM]	IC50 (EHMT1) [µM]
COc1ccc(Nc2ccc3cnn(C)c3c2)cc1OCCCN1CCCC1 [Compound 217]	> 10	> 10
COc1ccc(Nc2ccc3ncn(C)c3n2)cc1OCCCN1CCCC1 [Compound 218]	> 10	> 10
COc1ccc(Nc2ncc3ncn(C)c3n2)cc1OCCCN1CCCC1 [Compound 219]	> 10	> 10
COc1ccc(Nc2cccc3ncnn23)cc1OCCCN1CCCC1 [Compound 220]	> 10	> 10
COc1ccc(Nc2ccc3nn(C)cc3c2)cc1OCCCN1CCCC1 [Compound 221]	> 10	> 10
COc1ccc(Nc2cccc3cn(C)nc23)cc1OCCCN1CCCC1 [Compound 222]	> 10	> 10
COc1ccc(Nc2ccc3ncc(C)n3n2)cc1OCCCN1CCCC1 [Compound 223]	1 to 10	1 to 10
COc1ccc(Nc2nccc(-c3cnn(C)c3)n2)cc1OCCCN1CCCC1 [Compound 224]	> 10	> 10
COc1ccc(Nc2nccc(Nc3cccc(F)c3)n2)cc1OCCCN1CCCC1 [Compound 225]	1 to 10	1 to 10
COc1ccc(Nc2nccc(NCC3CCOCC3)n2)cc1NCCCN1CCCC1 [Compound 226]	0.1 to 1	1 to 10
COc1ccc(OCCCN2CCCC2)cc1Nc1nccc(NCC2CCOCC2)n1 [Compound 227]	> 10	> 10
COc1ccc(NCCCN2CCCC2)cc1Nc1nccc(NCC2CCOCC2)n1 [Compound 228]	> 10	> 10
CNc1ccnc(Nc2ccc(OC)c(OCCCN3CC[C@@H](F)C3)c2)n1 [Compound 229]	0.1 to 1	0.1 to 1
CNc1ccnc(Nc2ccc(OC)c(OCCCN3CC(F)C3)c2)n1 [Compound 230]	1 to 10	1 to 10
CNc1nccc(Nc2ccc(OC)c(OCCCN3CCCC3)c2)n1 [Compound 231]	0.1 to 1	0.1 to 1
CNc1cc(C)nc(Nc2ccc(F)c(OCCCN3CCCC3)c2)n1 [Compound 232]	> 10	> 10
CNc1nc(Nc2ccc(OC)c(OCCCN3CCCC3)c2)ncc1C#N [Compound 233]	> 10	> 10
CNc1nc(Nc2ccc(OC)c(OCCCN3CCCC3)c2)ncc1C(F)(F)F [Compound 234]	> 10	> 10

Compound	IC50 (human EHMT2 913-1193) [µM]	IC50 (EHMT1) [µM]
CNc1ncc(C(F)(F)F)c(Nc2ccc(OC)c(OCCCN3CCCC3)c2)n1 [Compound 235]	> 10	> 10
CNc1nc(Nc2ccc(OC)c(OCCCN3CCCC3)c2)nc(C)c1F [Compound 236]	0.1 to 1	0.1 to 1
CNc1ccnc(Nc2ccc(OC)c(OCCN3CCOCC3)c2)n1 [Compound 237]	1 to 10	1 to 10
CNc1ccnc(Nc2ccc3c(c2)N(C(=O)CCN(C)C)CC3)n1 [Compound 239]	> 10	> 10
CCc1cc(NC)nc(Nc2ccc(OC)c(OCCCN3CCCC3)c2)n1 [Compound 240]	< 0.1	< 0.1
COc1ccc(Nc2nccc(CNC3CCOCC3)n2)cc1OCCCNc1ccccc1 [Compound 241]	> 10	> 10
COc1ccc(Nc2cnnc(NCC3CCN(C(C)=O)CC3)c2)cc1OCCCN1CCCC1 [Compound 242]	1 to 10	1 to 10
COc1ccc(Nc2nccc(NCC3CCOCC3)n2)cc1OC1CC2(C1)CN(C)C2 [Compound 243]	> 10	> 10
CNc1ccnc(Nc2ccc(F)c(OCCCN3CCCC3)c2)n1 [Compound 244]	> 10	> 10
COc1ccc(Nc2nccc(N)n2)cc1OCCCN1CCCC1 [Compound 245]	0.1 to 1	0.1 to 1
CNc1cnnc(Nc2ccc(OC)c(OCCCN3CCCC3)c2)c1 [Compound 246]	0.1 to 1	0.1 to 1
CNc1cncc(Nc2ccc(OC)c(OCCCN3CCCC3)c2)n1 [Compound 247]	1 to 10	1 to 10
CNc1cc(Nc2cc(OCCCN3CCCC3)c(OC)cn2)ccn1 [Compound 248]	< 0.1	< 0.1
COc1ccc(Nc2nccc3[nH]ncc23)cc1OCCCN1CCCC1 [Compound 249]	> 10	> 10
COc1ccc(Nc2ccnc3[nH]ccc23)cc1OCCCN1CCCC1 [Compound 250]	1 to 10	1 to 10
CC(C)Nc1ccnc(Nc2cccc(OCCCN3CC[C@@H](F)C3)c2)n1 [Compound 251]	> 10	> 10
CNc1ccnc(Nc2cccc(OC[C@H](O)CN3CCCC3)c2)n1 [Compound 252]	1 to 10	1 to 10
CNc1ccnc(Nc2cccc(OC[C@@H](O)CN3CCCC3)c2)n1 [Compound 253]	> 10	> 10
